Test results reported in BigSolDB 2.1.

Oc1ccc(/C=C/c2cc(O)cc(O)c2)cc1
solubility (mole fraction)
Details	in THF	in acetone	in ethanol	in ethyl acetate	in isopropanol	in methanol	in n-butanol	in n-hexanol	in n-pentanol	in n-propanol
278.2 K	0.104	0.0849	0.0117	0.0062	0.0053	0.0108	0.0041	0.004	0.004	0.0068
288.2 K	0.106	0.0859	0.0139	0.0106	0.0062	0.012	0.0058	0.0052	0.0055	0.0088
298.2 K	0.109	0.0866	0.0169	0.0164	0.009	0.0135	0.0083	0.0075	0.0093	0.0113
308.2 K	0.112	0.0874	0.0198	0.0214	0.011	0.0151	0.0103	0.0087	0.0109	0.0128
318.2 K	0.114	0.0886	0.0223	0.0254	0.0138	0.0166	0.0122	0.0108	0.0143	0.0153
